“And” between values parts separate entries of the source, which are not always exact repeats. Identical values can stand only once. Toxic doses and inconclusive results are not listed.
System: BDF1 mice, intracerebral L1210 leukemia, survival T/C
Assay: NCI In Vivo Anticancer Drug Screen. Data for tumor model L1210 Leukemia (intracerebral) in B6D2F1 (BDF1) mice
Conditions: endpoint: mean survival time, higher = longer survival
Summary of the method: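 Tumour was transplanted, animals received compound or vehicle, then survival in each group was measured and treated divided by control.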

SMILES: O=NN(CCCl)C(=O)NC1CCCCC1
- T/C (dose: 1.0 mg/kg/injection, schedule: Q01DX001 (ip), vehicle: saline): 101 % of control
- T/C (dose: 1.0 mg/kg/injection, schedule: Q01DX001 (oral), vehicle: saline): 91 % of control
- T/C (dose: 1.0 mg/kg/injection, schedule: Q01DX Z (ip), vehicle: carboxymethylcellulose (CMC)): 103 % of control and 116 % of control
- T/C (dose: 2.0 mg/kg/injection, schedule: Q01DX009 (ip), vehicle: carboxymethylcellulose (CMC)): 106 % of control
- T/C (dose: 2.0 mg/kg/injection, schedule: Q01DX Z (ip), vehicle: carboxymethylcellulose (CMC)): 104 % of control and 108 % of control
- T/C (dose: 4.0 mg/kg/injection, schedule: Q01DX Z (ip), vehicle: carboxymethylcellulose (CMC)): 118 % of control
- T/C (dose: 5.0 mg/kg/injection, schedule: Q01DX001 (ip), vehicle: carboxymethylcellulose (CMC)): 115 % of control
- T/C (dose: 5.1 mg/kg/injection, schedule: Q01DX001 (ip), vehicle: carboxymethylcellulose (CMC)): 111 % of control and 120 % of control
- T/C (dose: 8.0 mg/kg/injection, schedule: Q01DX009 (ip), vehicle: carboxymethylcellulose (CMC)): 212 % of control
- T/C (dose: 8.0 mg/kg/injection, schedule: Q01DX Z (ip), vehicle: carboxymethylcellulose (CMC)): 202 % of control
- T/C (dose: 10.0 mg/kg/injection, schedule: Q01DX001 (ip), vehicle: saline): 113 % of control
- T/C (dose: 10.0 mg/kg/injection, schedule: Q01DX001 (oral), vehicle: saline): 115 % of control
- T/C (dose: 12.0 mg/kg/injection, schedule: Q01DX Z (ip), vehicle: carboxymethylcellulose (CMC)): 213 % of control
- T/C (dose: 12.5 mg/kg/injection, schedule: Q01DX001 (ip), vehicle: carboxymethylcellulose (CMC)): 166 % of control and 176 % of control
- T/C (dose: 14.0 mg/kg/injection, schedule: Q01DX001 (ip), vehicle: carboxymethylcellulose (CMC)): 114 % of control and 122 % of control
- T/C (dose: 16.0 mg/kg/injection, schedule: Q01DX009 (ip), vehicle: carboxymethylcellulose (CMC)): 302 % of control
- T/C (dose: 16.0 mg/kg/injection, schedule: Q01DX Z (ip), vehicle: carboxymethylcellulose (CMC)): 152 % of control and 162 % of control
- T/C (dose: 20.0 mg/kg/injection, schedule: Q01DX001 (ip), vehicle: carboxymethylcellulose (CMC)): 292 % of control
- T/C (dose: 24.25 mg/kg/injection, schedule: Q01DX001 (oral), vehicle: carboxymethylcellulose (CMC)): 266 % of control and 288 % of control and 339 % of control
- T/C (dose: 25.0 mg/kg/injection, schedule: Q01DX001 (ip), vehicle: saline): 231 % of control
- T/C (dose: 25.0 mg/kg/injection, schedule: Q01DX001 (oral), vehicle: saline): 243 % of control
- T/C (dose: 30.0 mg/kg/injection, schedule: Q01DX001 (ip), vehicle: carboxymethylcellulose (CMC)): 240 % of control and 321 % of control
- T/C (dose: 30.0 mg/kg/injection, schedule: Q01DX001 (ip), vehicle: saline): 322 % of control
- T/C (dose: 31.0 mg/kg/injection, schedule: Q01DX Z (ip), vehicle: carboxymethylcellulose (CMC)): 152 % of control
- T/C (dose: 32.0 mg/kg/injection, schedule: Q01DX001 (ip), vehicle: carboxymethylcellulose (CMC)): 165 % of control and 246 % of control
- T/C (dose: 33.0 mg/kg/injection, schedule: Q01DX001 (ip), vehicle: carboxymethylcellulose (CMC)): 459 % of control
- T/C (dose: 36.0 mg/kg/injection, schedule: Q01DX001 (ip), vehicle: carboxymethylcellulose (CMC)): 277 % of control
- T/C (dose: 37.5 mg/kg/injection, schedule: Q01DX001 (ip), vehicle: carboxymethylcellulose (CMC)): 269 % of control
- T/C (dose: 40.0 mg/kg/injection, schedule: Q01DX001 (ip), vehicle: saline): 240 % of control
- T/C (dose: 43.0 mg/kg/injection, schedule: Q01DX001 (ip), vehicle: carboxymethylcellulose (CMC)): 481 % of control and 731 % of control
- T/C (dose: 45.0 mg/kg/injection, schedule: Q01DX001 (ip), vehicle: carboxymethylcellulose (CMC)): 189 % of control
- T/C (dose: 48.0 mg/kg/injection, schedule: Q01DX001 (ip), vehicle: carboxymethylcellulose (CMC)): 274 % of control and 306 % of control
- T/C (dose: 48.5 mg/kg/injection, schedule: Q01DX001 (oral), vehicle: carboxymethylcellulose (CMC)): 278 % of control and 337 % of control and 420 % of control
- T/C (dose: 50.0 mg/kg/injection, schedule: Q01DX001 (ip), vehicle: saline): 218 % of control and 277 % of control
- T/C (dose: 50.0 mg/kg/injection, schedule: Q01DX001 (oral), vehicle: saline): 255 % of control
- T/C (dose: 55.0 mg/kg/injection, schedule: Q01DX001 (ip), vehicle: carboxymethylcellulose (CMC)): 473 % of control
- T/C (dose: 60.0 mg/kg/injection, schedule: Q01DX001 (ip), vehicle: carboxymethylcellulose (CMC)): 359 % of control and 414 % of control and 463 % of control
- T/C (dose: 60.0 mg/kg/injection, schedule: Q01DX001 (ip), vehicle: saline): 227 % of control
- T/C (dose: 62.0 mg/kg/injection, schedule: Q01DX Z (ip), vehicle: carboxymethylcellulose (CMC)): 91 % of control and 94 % of control
- T/C (dose: 70.0 mg/kg/injection, schedule: Q01DX001 (ip), vehicle: carboxymethylcellulose (CMC)): 267 % of control
- T/C (dose: 70.0 mg/kg/injection, schedule: Q01DX001 (ip), vehicle: saline): 109 % of control
- T/C (dose: 72.0 mg/kg/injection, schedule: Q01DX001 (ip), vehicle: carboxymethylcellulose (CMC)): 208 % of control and 284 % of control and 293 % of control
- T/C (dose: 75.0 mg/kg/injection, schedule: Q01DX001 (ip), vehicle: carboxymethylcellulose (CMC)): 294 % of control
- T/C (dose: 75.0 mg/kg/injection, schedule: Q01DX001 (ip), vehicle: saline): 276 % of control
- T/C (dose: 75.0 mg/kg/injection, schedule: Q01DX001 (oral), vehicle: saline): 208 % of control
- T/C (dose: 80.0 mg/kg/injection, schedule: Q01DX001 (ip), vehicle: carboxymethylcellulose (CMC)): 184 % of control
- T/C (dose: 86.0 mg/kg/injection, schedule: Q01DX001 (ip), vehicle: carboxymethylcellulose (CMC)): 184 % of control and 211 % of control
- T/C (dose: 97.0 mg/kg/injection, schedule: Q01DX001 (oral), vehicle: carboxymethylcellulose (CMC)): 120 % of control and 122 % of control
- T/C (dose: 100.0 mg/kg/injection, schedule: Q01DX001 (ip), vehicle: carboxymethylcellulose (CMC)): 103 % of control
- T/C (dose: 100.0 mg/kg/injection, schedule: Q01DX001 (ip), vehicle: saline): 89 % of control
- T/C (dose: 100.0 mg/kg/injection, schedule: Q01DX001 (oral), vehicle: saline): 102 % of control

Reference: PubChem BioAssay AID252 (DTP/NCI, 2004)
